Measured values as given in paper PMC7181660, “A novel specific PERK activator reduces toxicity and extends survival in Huntington's disease models” (Scientific Reports, 2020).

Key:
panel of 391 kinases [1] = molecular target: panel of 391 kinases (Homo sapiens, UniProt Q08345); assay: biochemical; type: biochemical; conditions: DDR1, MK-28 1 µM, ATP 1 µM
panel of 391 kinases [2] = molecular target: panel of 391 kinases (Homo sapiens, UniProt P29376); assay: biochemical; type: biochemical; conditions: TYK1/LTK, MK-28 1 µM, ATP 1 µM
panel of 391 kinases [3] = molecular target: panel of 391 kinases (Homo sapiens, UniProt P53350); assay: biochemical; type: biochemical; conditions: PLK1, MK-28 1 µM, ATP 1 µM
panel of 391 kinases [4] = molecular target: panel of 391 kinases (Homo sapiens, UniProt Q9NRM7); assay: biochemical; type: biochemical; conditions: LATS2, MK-28 1 µM, ATP 1 µM
panel of 391 kinases [5] = molecular target: panel of 391 kinases (Homo sapiens, UniProt P04626); assay: biochemical; type: biochemical; conditions: ERBB2/HER2, MK-28 1 µM, ATP 1 µM
panel of 391 kinases [6] = molecular target: panel of 391 kinases (Homo sapiens, UniProt P36894); assay: biochemical; type: biochemical; conditions: ALK3/BMPR1A, MK-28 1 µM, ATP 1 µM
panel of 391 kinases [7] = molecular target: panel of 391 kinases (Homo sapiens, UniProt O00418); assay: biochemical; type: biochemical; conditions: kinase EEF2K, compound at 1 µM, single dose in duplicates, 1 µM ATP
panel of 391 kinases [8] = molecular target: panel of 391 kinases (Homo sapiens, UniProt Q15418); assay: biochemical; type: biochemical; conditions: RSK1, MK-28 1 µM, ATP 1 µM
panel of 391 kinases [9] = molecular target: panel of 391 kinases (Homo sapiens, UniProt Q15349); assay: biochemical; type: biochemical; conditions: RSK3, MK-28 1 µM, ATP 1 µM
panel of 391 kinases [10] = molecular target: panel of 391 kinases (Homo sapiens, UniProt P29320); assay: biochemical; type: biochemical; conditions: EPHA3, MK-28 1 µM, ATP 1 µM
panel of 391 kinases [11] = molecular target: panel of 391 kinases (Homo sapiens, UniProt Q16832); assay: biochemical; type: biochemical; conditions: DDR2, MK-28 1 µM, ATP 1 µM
panel of 391 kinases [12] = molecular target: panel of 391 kinases (Homo sapiens, UniProt Q08881); assay: biochemical; type: biochemical; conditions: ITK, MK-28 1 µM, ATP 1 µM
panel of 391 kinases [13] = molecular target: panel of 391 kinases (Homo sapiens, UniProt P17612); assay: biochemical; type: biochemical; conditions: PKA, MK-28 1 µM, ATP 1 µM
panel of 391 kinases [14] = molecular target: panel of 391 kinases (Homo sapiens, UniProt Q86YV6); assay: biochemical; type: biochemical; conditions: MYLK4, MK-28 1 µM, ATP 1 µM
panel of 391 kinases [15] = molecular target: panel of 391 kinases (Homo sapiens, UniProt Q16644); assay: biochemical; type: biochemical; conditions: MAPKAPK3, MK-28 1 µM, ATP 1 µM
panel of 391 kinases [16] = molecular target: panel of 391 kinases (Homo sapiens, UniProt Q13164); assay: biochemical; type: biochemical; conditions: ERK5/MAPK7, MK-28 1 µM, ATP 1 µM
panel of 391 kinases [17] = molecular target: panel of 391 kinases (Homo sapiens, UniProt Q04759); assay: biochemical; type: biochemical; conditions: PKCtheta, MK-28 1 µM, ATP 1 µM
panel of 391 kinases [18] = molecular target: panel of 391 kinases (Homo sapiens, UniProt P29322); assay: biochemical; type: biochemical; conditions: EPHA8, MK-28 1 µM, ATP 1 µM
panel of 391 kinases [19] = molecular target: panel of 391 kinases (Homo sapiens, UniProt O96017); assay: biochemical; type: biochemical; conditions: CHK2, MK-28 1 µM, ATP 1 µM
panel of 391 kinases [20] = molecular target: panel of 391 kinases (Homo sapiens, UniProt O43353); assay: biochemical; type: biochemical; conditions: RIPK2, MK-28 1 µM, ATP 1 µM
panel of 391 kinases [21] = molecular target: panel of 391 kinases (Homo sapiens, UniProt Q15569); assay: biochemical; type: biochemical; conditions: TESK1, MK-28 1 µM, ATP 1 µM
panel of 391 kinases [22] = molecular target: panel of 391 kinases (Homo sapiens, UniProt P54760); assay: biochemical; type: biochemical; conditions: EPHB4; MK-28 1 µM; ATP 1 µM; read-out: % Enzyme Activity (relative to DMSO controls)
panel of 391 kinases [23] = molecular target: panel of 391 kinases (Homo sapiens, UniProt Q86V86); assay: biochemical; type: biochemical; conditions: PIM3, MK-28 1 µM, ATP 1 µM
panel of 391 kinases [24] = molecular target: panel of 391 kinases (Homo sapiens, UniProt P29317); assay: biochemical; type: biochemical; conditions: EPHA2, MK-28 1 µM, ATP 1 µM
R6/2 HD mouse model = assay: Ultrasonic vocalizations; type: in vivo, mice; conditions: R6/2 TG males
Description: Ultrasonic vocalizations were recorded on males during the first 5 minutes of female exposure, 12 weeks after birth. Vocal emissions were monitored by an UltraSoundGate Condenser Microphone (CM 16; Avisoft Bioacoustics, Berlin, Germany) placed 16 cm above the floor of each male's cage. […]. […] Spectrograms were produced at 586 Hz of frequency resolution and 0.427 ms of time resolution. Figure plotted by MATLAB code.

[25] = read-out: % Enzyme Activity (relative to DMSO controls)

CN(/N=C\c1ccc(O)c(O)c1)c1nc(-c2ccccc2)cc(-c2ccccc2)n1 [MK-28]
% Enzyme Activity (relative to DMSO controls) (panel of 391 kinases [1]): 100.73%
remaining activity at 1 µM (panel of 391 kinases [1]; [25]): 103%
% Enzyme Activity (relative to DMSO controls) (panel of 391 kinases [2]): 82.78%
remaining activity at 1 µM (panel of 391 kinases [2]; [25]): 84.2%
% Enzyme Activity (relative to DMSO controls) (panel of 391 kinases [3]): 95.85%
remaining activity at 1 µM (panel of 391 kinases [3]; [25]): 95.9%
% Enzyme Activity (relative to DMSO controls) (panel of 391 kinases [4]): 84.83%
remaining activity at 1 µM (panel of 391 kinases [4]; [25]): 88.2%
% Enzyme Activity (relative to DMSO controls) (panel of 391 kinases [5]): 98.41%
remaining activity at 1 µM (panel of 391 kinases [5]; [25]): 99.3%
% Enzyme Activity (relative to DMSO controls) (panel of 391 kinases [6]): 98.85%
remaining activity at 1 µM (panel of 391 kinases [6]; [25]): 106%
% Enzyme Activity (relative to DMSO controls) (panel of 391 kinases [7]): 90.89%
remaining activity at 1 µM (panel of 391 kinases [7]; [25]): 91%
% Enzyme Activity (relative to DMSO controls) (panel of 391 kinases [8]): 96.73%
remaining activity at 1 µM (panel of 391 kinases [8]; [25]): 96.8%
% Enzyme Activity (relative to DMSO controls) (panel of 391 kinases [9]): 100.80%
remaining activity at 1 µM (panel of 391 kinases [9]; [25]): 103%
% Enzyme Activity (relative to DMSO controls) (panel of 391 kinases [10]): 93.74%
remaining activity at 1 µM (panel of 391 kinases [10]; [25]): 106%
% Enzyme Activity (relative to DMSO controls) (panel of 391 kinases [11]): 95.21%
remaining activity at 1 µM (panel of 391 kinases [11]; [25]): 97.4%
% Enzyme Activity (relative to DMSO controls) (panel of 391 kinases [12]): 92.03%
remaining activity at 1 µM (panel of 391 kinases [12]; [25]): 92.4%
% Enzyme Activity (relative to DMSO controls) (panel of 391 kinases [13]): 91.97%
remaining activity at 1 µM (panel of 391 kinases [13]; [25]): 93%
% Enzyme Activity (relative to DMSO controls) (panel of 391 kinases [14]): 92.82%
remaining activity at 1 µM (panel of 391 kinases [14]; [25]): 97.6%
% Enzyme Activity (relative to DMSO controls) (panel of 391 kinases [15]): 71.56%
remaining activity at 1 µM (panel of 391 kinases [15]; [25]): 74.1%
% Enzyme Activity (relative to DMSO controls) (panel of 391 kinases [16]): 118.22%
remaining activity at 1 µM (panel of 391 kinases [16]; [25]): 119%
% Enzyme Activity (relative to DMSO controls) (panel of 391 kinases [17]): 123.95%
remaining activity at 1 µM (panel of 391 kinases [17]; [25]): 128%
% Enzyme Activity (relative to DMSO controls) (panel of 391 kinases [18]): 98.42%
remaining activity at 1 µM (panel of 391 kinases [18]; [25]): 98.7%
% Enzyme Activity (relative to DMSO controls) (panel of 391 kinases [19]): 98.51%
remaining activity at 1 µM (panel of 391 kinases [19]; [25]): 101%
% Enzyme Activity (relative to DMSO controls) (panel of 391 kinases [20]): 100.79%
remaining activity at 1 µM (panel of 391 kinases [20]; [25]): 102%
% Enzyme Activity (relative to DMSO controls) (panel of 391 kinases [21]): 66.57%
remaining activity at 1 µM (panel of 391 kinases [21]; [25]): 66.7%
remaining activity at 1 µM (panel of 391 kinases [22]): 92.8%
% Enzyme Activity (relative to DMSO controls) (panel of 391 kinases [23]): 87.24%
remaining activity at 1 µM (panel of 391 kinases [23]; [25]): 89.2%
% Enzyme Activity (relative to DMSO controls) (panel of 391 kinases [24]): 99.61%
remaining activity at 1 µM (panel of 391 kinases [24]; [25]): 100%
vocalizations (R6/2 HD mouse model; 12 weeks after birth): 16 syllables in 5 min
increase of vocalizations vs untreated TG (R6/2 HD mouse model; p = 0.059): three-fold increase
